Laboratory results reported in US20180099937A1, “NOVEL ARYL-CYANOGUANIDINE COMPOUNDS” (Bayer Pharma Aktiengesellschaft, priority 2015, published 2018).

What was measured:
[1] = target: T1, SMYD2 (Homo sapiens, UniProt Q9NRG4); assay: In Cell Western (ICW) cell-based assay for detection of SMYD2 methylation activity; design: expressed in transfected cells; host or cells: KYSE-150 (human esophageal carcinoma, DSMZ ACC 375); details: SMYD2 overexpressing KYSE-150 cells, 72 h treatment, p53K370me1 signal normalized to DRAQ5; read-out: IC50 [mol/l] (ICW assay)
T1 sequence (Q9NRG4 whole entry): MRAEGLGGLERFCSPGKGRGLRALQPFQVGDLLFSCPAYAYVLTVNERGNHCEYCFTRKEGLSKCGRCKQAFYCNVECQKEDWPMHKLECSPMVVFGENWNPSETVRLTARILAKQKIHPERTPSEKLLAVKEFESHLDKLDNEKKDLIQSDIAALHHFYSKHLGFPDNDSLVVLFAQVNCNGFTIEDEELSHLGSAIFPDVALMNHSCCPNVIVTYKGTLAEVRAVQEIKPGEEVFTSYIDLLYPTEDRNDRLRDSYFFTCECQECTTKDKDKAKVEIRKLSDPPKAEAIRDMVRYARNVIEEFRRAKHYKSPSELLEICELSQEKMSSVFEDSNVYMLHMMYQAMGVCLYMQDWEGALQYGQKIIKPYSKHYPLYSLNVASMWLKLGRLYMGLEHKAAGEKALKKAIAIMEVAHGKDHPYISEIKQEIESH
From the text: 1.2 Cell-Based Assay for Detection of SMYD2 methylation Activity
For the detection of SMYD2 cellular methylation activity an In Cell Western (ICW) assay was established. This assay allows rapid processing of multiple samples for SMYD2 methylation derived immunofluorescence signals, with normalization to cell number via the use of the nucleic acid dye DRAQS. KYSE-150 cells (human esophageal carcinoma cell line; DSMZ-German Collection of Microorganisms and Cell Cultures; No: ACC 375) have been stably transfected with a construct expressing wild-type SMYD2 (NCBI Reference Sequence: NP_064582.2). To detect SMYD2-mediated methylation signals in cells, a customized antibody directed against mono-methylated lysine 370 on protein p53 (p53K370me1) was used. The polyclonal antibody was generated (Eurogentec) against a p53 peptide containing the mono-methylated K370 epitope as described elsewhere (Huang et al., Nature, 2006, 444(7119):629-32).
For conducting the ICW assay 5000 SMYD2 overexpressing KYSE-150 cells/well were seeded in 96-well plates (SIGMA) and cultivated for 24 h. As a control for maximal inhibition of ectopic methylation activity, non-transfected KYSE-150 cells were used. Cells were grown in 49% RPMI 1640 with 49% Ham's F12 media supplemented with 2% heat inactivated fetal calf serum (FCS). For determination of SMYD2 inhibitory activity, cells were treated for 72 h in the presence of compounds or with DMSO. Cells were treated with compounds to be tested at a final concentration range varying from 3.9×10^−8 to 5×10^−6 M. Media was removed and 3.7% (w/v) formaldehyde in PBS was added for 20 min. After two washes with phosphate buffered saline (PBS), 0.25% (v/v) Triton X100 in PBS was added for 15 minutes of permeabilization. After one washing step with PBS, cells were blocked for 1 h with 5% (w/v) non-fat dry milk in PBS. Fixed cells were exposed to primary […] antibody in 5% non-fat dry milk in PBS for 24 h. One row of cells on each plate was not exposed to p53K370me1 antibody and was reserved for background control measurements. The wells were washed three times with PBS, then secondary IR800 conjugated antibody (LI-COR) and DNA-intercalating dye, 5 μM DRAQ5 (LI-COR) were added for 3 h. After 5 washes with PBS, the fluorescence in each well was measured on an Odyssey (LI-COR) scanner at 800 nm (p53K370me1 signal; 764 nm excitation) and 700 nm (DRAQS signal; 683 nm excitation). Fluorescence intensity was quantified and normalized to background and DRAQ5 signals. IC50 values were calculated by fitting the normalized inhibition data to a 4-parameter logistic equation (Minimum, Maximum, IC50, Hill; Y=Max+(Min−Max)/(1+(X/IC50)Hill)) for each tested compound. For IC50 determination C0 (=no inhibition) was defined as the signal measured for DMSO treated controls. Ci (maximal inhibition) was defined as the signal measured for non SMYD2 overexpressing KYSE150 cells.

[2] = target: T1, SMYD2; assay: Scintillation Proximity Assay (SPA) for detection of SMYD2 enzymatic inhibition; format: biochemical; design: The SMYD2 full length enzyme was produced in-house by expression (with an N-terminal 6× His tag) in E. coli; 6xHis (N); made in house; host or cells: E. coli; details: SMYD2 full length enzyme, p53 Peptide substrate 1.0 μM, 3H-SAM 60 nM; read-out: IC50 [mol/l] (SPA Assay)
Method in brief: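 Full-length N-His SMYD2 from E. coli (typically 3 nM) was preincubated with compounds (0.1 nM–20 μM) for 15 min, then reacted 30 min at 22° C with 60 nM 3H-SAM and 1.0 μM biotinylated p53 peptide in Tris pH 9.0. Streptavidin SPA beads read methylation, and IC50 came from a 4-parameter fit.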

Compound	IC50 [1] [nM]	IC50 [2] [nM]
CCN(C(=O)[C@H]1CCCN1)C1CN(/C(=N\C#N)Nc2cccc(OC(F)F)c2)N=C1c1ccc(Cl)c(Cl)c1 (mixture of isomers) [Example 1, N-[1-{N′-Cyano-N-[3-(difluoromethoxy)phenyl]carbamimidoyl}-3-(3,4-dichlorophenyl)-4,5-dihydro-1H-pyrazol-4-yl]-N-ethyl-D-prolinamide]	161	24.7
CCN(C(=O)[C@H]1CCN1)C1CN(/C(=N\C#N)Nc2cccc(OC(F)F)c2)N=C1c1ccc(Cl)c(Cl)c1 (mixture of isomers) [Example 2, (2R)-N-[1-{N′-cyano-N-[3-(difluoromethoxy)phenyl]carbamimidoyl}-3-(3,4-dichlorophenyl)-4,5-dihydro-1H-pyrazol-4-yl]-N-ethylazetidine-2-carboxamide]	44.5	14.5
C[C@]1(C(=O)NC2CN(/C(=N\C#N)Nc3cccc(OC(F)F)c3)N=C2c2ccc(Cl)c(Cl)c2)CCCN1 (mixture of isomers) [Example 6, N-[1-{N′-Cyano-N-[3-(difluoromethoxy)phenyl]carbamimidoyl}-3-(3,4-dichlorophenyl)-4,5-dihydro-1H-pyrazol-1-yl]-2-methyl-D-prolinamide]	104	11.3
CN(C(=O)[C@H]1C[C@@H](O)CN1)C1CN(/C(=N\C#N)Nc2cccc(OC(F)F)c2)N=C1c1ccc(Cl)c(Cl)c1 (mixture of isomers) [Example 12, (4R)-N-[1-{N′-Cyano-N-[3-(difluoromethoxy)phenyl]carbamimidayl}-3-(3,4-dichlorophenyl)-4,5-dihydro-1H-pyrazol-1-yl]-4-hydroxy-N-methyl-D-prolinamide]	313	16.8
CCN(C(=O)[C@H]1CCCN1)C1CN(/C(=N\C#N)Nc2cc(OC)cc(C(F)(F)F)c2)N=C1c1ccc(Cl)c(Cl)c1 (mixture of isomers) [Example 28, N-[1-{N′-Cyano-N-[3-methoxy-5-(trifluoromethyl)phenyl]carbamimidoyl}-3-(3,4-dichlorophenyl)-4,5-dihydro-1H-pyrazol-4-yl]-N-ethyl-D-prolinamide]	77	39.5
CCN(C(=O)[C@H]1CCCN1)C1CN(/C(=N\C#N)Nc2cc(OC)ccc2Cl)N=C1c1ccc(Cl)c(Cl)c1 (mixture of isomers) [Example 32, N-{1-[N-(2-Chloro-5-methoxyphenyl)-N′-cyanocarbamimidoyl]-3-(3,4-dichlorophenyl)-4,5-dihydro-1H-pyrazol-4-yl}-N-ethyl-D-prolinamide]	268	38.4
CCN(C(=O)[C@H]1CCN1)C1CN(/C(=N\C#N)Nc2cccc(OC(F)F)c2)N=C1c1ccc(Cl)c(C)c1 (mixture of isomers) [Example 36, (2R)-N-[3-(4-Chloro-3-methylphenyl)-1-{N′-cyano-N-[3-(difluoromethoxy)phenyl]-carbamimidoyl}-4,5-dihydro-1H-pyrazol-4-yl]-N-ethylazetidine-2-carboxamide]	3.87	8.03
CCN(C(=O)[C@H]1C[C@@H](F)CN1)C1CN(/C(=N\C#N)Nc2cccc(OC(F)F)c2)N=C1c1ccc(Cl)c(C)c1 (mixture of isomers) [Example 38, (4R)-N-[3-(4-Chloro-3-methylphenyl)-1-{N′-cyano-N-[3-(difluoromethoxy)phenyl]carbamimidoyl}-4,5-dihydro-1H-pyrazol-4-yl]-N-ethyl-4-fluoro-D-prolinamide]	18.8	387
CCCN(C(=O)[C@H]1CCCN1)C1CN(/C(=N\C#N)Nc2cccc(OC(F)F)c2)N=C1c1ccc(Cl)c(C)c1 (mixture of isomers) [Example 40, N-[3-(4-Chloro-3-methylphenyl)-1-{N′-cyano-N-[3-(difluoromethoxy)phenyl]carbamimidoyl}-4,5-dihydro-1H-pyrazol-4-yl]-N-propyl-D-prolinamide]	206	44.3
CCN(C(=O)c1cccc(=O)[nH]1)C1CN(/C(=N\C#N)Nc2cccc(OC(F)F)c2)N=C1c1ccc(Cl)c(Cl)c1 (racemic) [Example 5, rac-N-[1-{N′-Cyano-N-[3-(difluoromethoxy)phenyl]carbamimidoyl}-3-(3,4-dichlorophenyl)-4,5-dihydro-1-pyrazol-4-yl]-N-ethyl-6-oxo-1,6-dihydropyridine-2-carboxamide]	720	793
CCN(C(=O)c1cccc(=O)[nH]1)C1CN(/C(=N\C#N)Nc2cccc(OC(F)(F)F)c2)N=C1c1ccc(Cl)c(Cl)c1 (racemic) [Example 18, rac-N-[1-{N′-Cyano-N-[3-(trifluoromethoxy)phenyl]carbamimidoyl}-3-(3,4-dichlorophenyl)-4,5-dihydro-1H-pyrazol-4-yl]-N-ethyl-6-oxo-1,6-dihydropyridine-2-carboxamide]	764	1520
N#C/N=C(/Nc1cccc(OC(F)F)c1)N1CC(NC(=O)[C@@H]2CCC[C@@H]2N)C(c2ccc(Cl)c(Cl)c2)=N1 (relative stereo) [Example 41, Rel-(1R,2S)-2-amino-N-[1-{N′-cyano-N-[3-(difluoromethoxy)phenyl]carbamimidoyl}-3-(3,4-dichlorophenyl)-4,5-dihydro-1H-pyrazol-4-yl]cyclopentanecarboxamide]	571	121
CCN(C(=O)[C@H]1CCCN1)C1CN(/C(=N\C#N)Nc2cccc(CC(F)(F)F)c2)N=C1c1ccc(Cl)c(Cl)c1 (single isomer, unassigned) [Example 31.2, N-[1-{N′-Cyano-N-[3-(2,2,2-trifluoroethyl)phenyl]carbamimidoyl}-3-(3,4-dichlorophenyl)-4,5-dihydro-1H-pyrazol-4-yl]-N-ethyl-D-prolinamide]		211
CCN(C(=O)[C@H]1CCN1)C1CN(/C(=N\C#N)Nc2cccc(OC(F)F)c2)N=C1c1ccc(Cl)c(C)c1 (single isomer, unassigned) [Example 36.2]		302
CCN(C(=O)[C@H]1CCCN1)C1CN(/C(=N\C#N)Nc2cccc(OC(F)F)c2)N=C1c1ccc(Cl)c(C)c1 (single isomer, unassigned) [Example 37.2, N-[3-(4-Chloro-3-methylphenyl)-1-{N′-cyano-N-[3-(difluoromethoxy)phenyl]carbamimidoyl}-4,5-dihydro-1H-pyrazol-4-yl]-N-ethyl-D-prolinamide]		> 20000
CCN(C(=O)[C@H]1C[C@@H](F)CN1)C1CN(/C(=N\C#N)Nc2cccc(OC(F)F)c2)N=C1c1ccc(Cl)c(C)c1 (single isomer, unassigned) [Example 38.2]		~20000
CCN(C(=O)[C@H]1C[C@@H](O)CN1)C1CN(/C(=N\C#N)Nc2cccc(OC(F)F)c2)N=C1c1ccc(Cl)c(C)c1 (single isomer, unassigned) [Example 39.1]		32.2
CCN(C(=O)[C@H]1C[C@@H](O)CN1)C1CN(/C(=N\C#N)Nc2cccc(OC(F)F)c2)N=C1c1ccc(Cl)c(C)c1 (single isomer, unassigned) [Example 39.2]		1640
(2R)-N-[3-(4-chlaro-3-methylphenyl)-1-{N′-cyano-N-[3-(difluoromethoxy)phenyl]carbamimidoyl}-4,5-dihydro-1H-pyrazol-4-yl]-N-ethylpiperidine-2-carboxamide [Example 46]		1500
